Where two headings read alike, the source gives them in different places.
Legend:
[1] = system: Key Broadleaf Weed and Crop Species; assay: Post-emergent Test II herbicidal activity (Table 15); type: in vivo; settings: post-emergence, 336 h, 14 d; for pest or weed control at 35 g/ha: 35 g ai/ha; for pest or weed control at 70 g/ha: 70 g ai/ha; for pest or weed control at 140 g/ha: 140 g ai/ha
Summary of the method: (§1)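 Plants at first-second true leaf stage, grown 7-21 d in greenhouse (~15 h photoperiod, 23-29 °C day), were track-sprayed at 187 L/ha with compound in acetone/DMSO/water/isopropanol/crop oil/Triton X-155 at a high rate plus 1/2× to 1/16× dilutions. Injury scored visually after 14 d versus untreated plants, 0 (none) to 100% (complete kill).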

[2] = system: Key Grass and Sedge Weeds as well as Grass Crops; assay: Post-emergent Test II herbicidal activity (Table 16); type: in vivo; settings: post-emergence, 336 h, 14 d; for pest or weed control at 35 g/ha: 35 g ai/ha; for pest or weed control at 70 g/ha: 70 g ai/ha; for pest or weed control at 140 g/ha: 140 g ai/ha
Summary of the method: as §1

[3] = Abutilon theophrasti, velvetleaf (Abutilon theophrasti), read-out: Visual Growth Reduction (%) 14 Days After Application, ABUTH
[4] = Amaranthus retroflexus, redroot pigweed (Amaranthus retroflexus), read-out: Visual Growth Reduction (%) 14 Days After Application, AMARE
[5] = Brassica napus, oilseed rape, canola (Brassica napus), read-out: Visual Growth Reduction (%) 14 Days After Application, BRSNN
[6] = Chenopodium album, lambsquarters (Chenopodium album), read-out: Visual Growth Reduction (%) 14 Days After Application, CHEAL
[7] = Euphorbia heterophylla, wild poinsettia (Euphorbia heterophylla), read-out: Visual Growth Reduction (%) 14 Days After Application, EPHHL
[8] = Helianthus annuus, sunflower (Helianthus annuus), read-out: Visual Growth Reduction (%) 14 Days After Application, HELAN
[9] = Cyperus esculentus, yellow nutsedge (Cyperus esculentus), read-out: Visual Growth Reduction (%) 14 Days After Application, CYPES
[10] = Echinochloa crus-galli, barnyardgrass (Echinochloa crus-galli), read-out: Visual Growth Reduction (%) 14 Days After Application, ECHCG
[11] = Oryza sativa, rice (Oryza sativa), read-out: Visual Growth Reduction (%) 14 Days After Application, ORYSA
[12] = Setaria faberi, giant foxtail (Setaria faberi), read-out: Visual Growth Reduction (%) 14 Days After Application, SETFA
[13] = Triticum aestivum, wheat, spring (Triticum aestivum), read-out: Visual Growth Reduction (%) 14 Days After Application, TRZAS
[14] = Zea mays, maize, corn (Zea mays), read-out: Visual Growth Reduction (%) 14 Days After Application, ZEAMX

SMILES	pest or weed control at 35 g/ha [1, 3] [%]	pest or weed control at 70 g/ha [1, 3] [%]	pest or weed control at 140 g/ha [1, 3] [%]	pest or weed control at 35 g/ha [1, 4] [%]	pest or weed control at 70 g/ha [1, 4] [%]	pest or weed control at 140 g/ha [1, 4] [%]	pest or weed control at 35 g/ha [1, 5] [%]	pest or weed control at 70 g/ha [1, 5] [%]	pest or weed control at 140 g/ha [1, 5] [%]	pest or weed control at 35 g/ha [1, 6] [%]	pest or weed control at 70 g/ha [1, 6] [%]	pest or weed control at 140 g/ha [1, 6] [%]	pest or weed control at 35 g/ha [1, 7] [%]	pest or weed control at 70 g/ha [1, 7] [%]	pest or weed control at 140 g/ha [1, 7] [%]	pest or weed control at 35 g/ha [1, 8] [%]	pest or weed control at 70 g/ha [1, 8] [%]	pest or weed control at 140 g/ha [1, 8] [%]	pest or weed control at 35 g/ha [2, 9] [%]	pest or weed control at 70 g/ha [2, 9] [%]	further results
C=Cc1c(C(=O)O)nc(-c2ccc3cc[nH]c3c2F)c(F)c1N [Compound 1.19]	95 to 100	95 to 100	95 to 100	95 to 100	95 to 100	95 to 100	95 to 100	95 to 100	95 to 100	95 to 100	95 to 100	95 to 100	95 to 100	95 to 100	95 to 100	60 to 74	75 to 84	95 to 100	85 to 94	75 to 84	pest or weed control at 140 g/ha [2, 9]: 95 to 100%; pest or weed control at 35 g/ha [2, 10]: 85 to 94%; pest or weed control at 70 g/ha [2, 10]: 85 to 94%; pest or weed control at 140 g/ha [2, 10]: 95 to 100%; pest or weed control at 35 g/ha [2, 11]: 30 to 44%; pest or weed control at 70 g/ha [2, 11]: 45 to 59%; pest or weed control at 140 g/ha [2, 11]: 60 to 74%; pest or weed control at 35 g/ha [2, 12]: 60 to 74%; pest or weed control at 70 g/ha [2, 12]: 75 to 84%; pest or weed control at 140 g/ha [2, 12]: 85 to 94%; pest or weed control at 35 g/ha [2, 13]: 60 to 74%; pest or weed control at 70 g/ha [2, 13]: 75 to 84%; pest or weed control at 140 g/ha [2, 13]: 75 to 84%; pest or weed control at 35 g/ha [2, 14]: 60 to 74%; pest or weed control at 70 g/ha [2, 14]: 60 to 74%; pest or weed control at 140 g/ha [2, 14]: 85 to 94%
COC(=O)c1nc(-c2ccc3cc[nH]c3c2F)c(Cl)c(N)c1Cl [Compound 1.07]	0 to 29	0 to 29	0 to 29	85 to 94	95 to 100	95 to 100	0 to 29	0 to 29	0 to 29	85 to 94	85 to 94	85 to 94	60 to 74	60 to 74	60 to 74	95 to 100	95 to 100	95 to 100	0 to 29	0 to 29	pest or weed control at 140 g/ha [2, 9]: 0 to 29%; pest or weed control at 35 g/ha [2, 10]: 0 to 29%; pest or weed control at 70 g/ha [2, 10]: 0 to 29%; pest or weed control at 140 g/ha [2, 10]: 0 to 29%; pest or weed control at 35 g/ha [2, 11]: 0 to 29%; pest or weed control at 70 g/ha [2, 11]: 0 to 29%; pest or weed control at 140 g/ha [2, 11]: 0 to 29%; pest or weed control at 35 g/ha [2, 12]: 60 to 74%; pest or weed control at 70 g/ha [2, 12]: 75 to 84%; pest or weed control at 140 g/ha [2, 12]: 75 to 84%; pest or weed control at 35 g/ha [2, 13]: 0 to 29%; pest or weed control at 70 g/ha [2, 13]: 0 to 29%; pest or weed control at 140 g/ha [2, 13]: 0 to 29%; pest or weed control at 35 g/ha [2, 14]: 0 to 29%; pest or weed control at 70 g/ha [2, 14]: 0 to 29%; pest or weed control at 140 g/ha [2, 14]: 0 to 29%

Reference: US20170050957A1, “4-AMINO-6-(HETEROCYCLIC)PICOLINATES AND 6-AMINO-2-(HETEROCYCLIC)PYRIMIDINE-4-CARBOXYLATES AND THEIR USE AS HERBICIDES” (Dow AgroSciences LLC, priority 2013, published 2017)
